# Assay results: US8026070B2 (priority 2005, dated 2011)
# “And” between values parts separate entries of the source, which are not always exact repeats. Equal values may be shown once. Read-outs that look alike come from different tables or passages of the source.
# Tested on: human recombinant PrP spiked into human plasma
SMILES,Ratio of Signals (ratio of signals from spiked plasma and only plasma samples),"Effect on detection of spiked human recombinant prion protein in human plasma (all concentrations (1, 10, 100 mM) in the sample preparation buffer)",Effect on detection of spiked human recombinant prion protein in human plasma,"Non-specific binding, optical density at 450 nm","Only Plasma, optical density at 450 nm","Plasma with human recombinant PrP, optical density at 450 nm"
"NC[C@H]1CC[C@H](C(=O)O)CC1 [AMCHA, trans-(aminomethyl)cyclohexanecarboxylic acid]",1.7 and 1.6 and 1.8,enhanced the detection,,,,
"NCCCCCC(=O)O [ACA, 6-aminohexanoic acid]",1.3 and 1.4 and 1.7,,enhanced the detection,0.4665 and 0.4128 and 0.4549,0.4036 and 0.4098 and 0.3737,0.52 and 0.5723 and 0.6507
